Biological target: TSPO (Homo sapiens, UniProt P30536)
Test: protein binding capacity for TSPO
Method: In order to find the conjugation position of IR780, a photosensitizer according to Example of the present invention, and an imidazopyridine derivative, a molecular docking simulation was performed. […] Accordingly, the compound of the present invention, a compound targeting mitochondria in cancer cells, was designed and synthesized so that IR780 was introduced by selecting a position (position Y in FIG. 1B) where steric hindrance is not expected, and then its protein binding capacity was measured.

Sequence of TSPO (P30536 whole entry): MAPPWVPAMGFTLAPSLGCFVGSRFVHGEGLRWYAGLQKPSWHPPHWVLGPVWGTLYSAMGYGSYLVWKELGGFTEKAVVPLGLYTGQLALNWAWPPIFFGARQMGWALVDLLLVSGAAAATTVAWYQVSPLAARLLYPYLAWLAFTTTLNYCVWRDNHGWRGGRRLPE

CCCN(CCC)C(=O)Cc1c(-c2ccc(Cl)cc2)nc2c(NC(=S)Nc3ccc(SC4=C(/C=C/C5=[N+](CCC)c6ccccc6C5(C)C)CCC/C4=C\C=C4\N(CCC)c5ccccc5C4(C)C)cc3)cccn12
Ki: 201 nM

— patent US20250360218A1, “MITOCHONDRIA-TARGETING CANCER THERAPEUTIC COMPOSITION” (Seoul National University R&DB Foundation, priority 2022, published 2025)
